Reference: US9408795B2, “Method for enhancing the growth and fullness of hair” (Avon Products, Inc., priority 2011, dated 2016)

Test system: FGFR1 gene expression
Experiment: PCR to assess FGFR1 gene expression in human dermal papilla cells
Type: cell-based
Conditions: 48-hour incubation, normalized to 18S, vs DMSO control
Description: Method: PCR to assess FGFR1 gene expression in human dermal papilla cells, following administration of L-4-Thiazolylalanine, Pouzolzia petandra, or cis-6-nonenol.
Human dermal papilla cells (Cell Applications, CA) were plated at 5000 cells/cm^2 in collagen-coated 6-well culture plates in the Papilla Cell Growth Medium (Cell Application, CA) overnight in humidified atmosphere of 5% CO2 at 37° C. When dermal papilla cells reached 80-90% confluence, the medium was replaced with fresh medium and the compounds (L-4-Thiazolylalanine, Pouzolzia petandra, or cis-6-nonenol) dissolved in DMSO were added to the wells in duplicate at a concentration of 0.002% or 0.001%. DMSO was used a vehicle control. Following 48-hour incubation, the medium was removed and the cells were collected in the Lysis/Binding Solution (Ambion, Tex.) after being washed with cold PBS.
Total RNA was extracted from dermal papilla cells by using the RNAqueous kit (Ambion, Tex.) according to the manufacture's instruction. RNA was quantified on the Nanodrop ND-1000 Spectrophotometer (NanoDrop Technologies, DE) and the confirmation of integrity was determined using the Agilent Bioanalyzer before RNA was further processed for cDNA preparation. […]
RNA abundance of FGFR1 was measured using quantitative Real-Time PCR. […] All samples were run in triplicate and normalized to 18S and expressed as a percentage of the control.

SMILES	Percent Inhibition of FGFR1 Expression (0.002% (w/v)) [%]	Percent Inhibition of FGFR1 Expression (0.001% (w/v)) [%]
CC/C=C\CCCCCO [cis-6-nonenol]	28.25	
N[C@@H](Cc1cscn1)C(=O)O [L-4-Thiazolylalanine, 4-L-thiazolylalanine]		59.13
